Data from the supplement of paper PMC10307832.

Key:
Experiment in all cases: relative viability (nuclei count vs DMSO), 5 days (fraction); higher = more cells survive
[1] = compound: CC1=CC=C(C=C1)C(=O)CN2C3=C(CCCC3)SC2=N [Pifithrin_alpha] + Nc1nc2[nH]cc(CCc3ccc(C(=O)N[C@@H](CCC(=O)O)C(=O)O)cc3)c2c(=O)[nH]1 [Pemetrexed] (partner 0.2 µM)
Summary of the method: (§1)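 Relative viability divides the nuclei count in treated wells by that in vehicle wells. Lung cancer cell lines were seeded in 1536-well plates, dosed by pin tool the next day, and fixed and stained after 5 days in one step with final 0.05% Triton X-100, 1% formaldehyde and 1 ug/ml Hoechst. Dosing was a single drug or a fixed anchor-drug dose plus five library-drug doses (not always all listed) in √10 steps, and values are medians of duplicate plates imaged at 4×.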

[2] = compound: Nc1nc(Nc2ccc3c(c2)CC[C@@H](N2CCCC2)CC3)nn1-c1cc2c(nn1)-c1ccccc1CCC2 [Bemcentinib] + Cc1nc(NC(=O)N2CCC[C@H]2C(N)=O)sc1-c1ccnc(C(C)(C)C(F)(F)F)c1 [Alpelisib] (partner 2 µM)
Summary of the method: as §1

[3] = compound: CNC(=O)c1ccccc1Sc1ccc2c(/C=C/c3ccccn3)n[nH]c2c1 [Axitinib] + CS(=O)(=O)N1CCN(Cc2cc3nc(-c4cccc5[nH]ncc45)nc(N4CCOCC4)c3s2)CC1 [Pictilisib] (partner 1 µM)
Summary of the method: as §1

[4] = compound: CNC(=O)c1ccccc1Sc1ccc2c(/C=C/c3ccccn3)n[nH]c2c1 [Axitinib] + COc1cc2c(Oc3ccc(NC(=O)C4(C(=O)Nc5ccc(F)cc5)CC4)cc3F)ccnc2cc1OCCCN1CCOCC1 [Foretinib] (partner 0.25 µM)
Summary of the method: as §1

| Cell Line | relative viability ([1]; first compound 1 µM) | relative viability ([1]; first compound 3.162 µM) | relative viability ([1]; first compound 10 µM) | relative viability ([1]; first compound 100 µM) | relative viability ([2]; first compound 0.04 µM) | relative viability ([2]; first compound 0.1265 µM) | relative viability ([2]; first compound 0.4 µM) | relative viability ([2]; first compound 1.265 µM) | relative viability ([2]; first compound 4 µM) | relative viability ([3]; first compound 0.005 µM) | relative viability ([3]; first compound 0.01581 µM) | relative viability ([3]; first compound 0.05 µM) | relative viability ([3]; first compound 0.1581 µM) | relative viability ([3]; first compound 0.5 µM) | relative viability ([4]; first compound 0.005 µM) | relative viability ([4]; first compound 0.01581 µM) | relative viability ([4]; first compound 0.05 µM) | relative viability ([4]; first compound 0.1581 µM) | relative viability ([4]; first compound 0.5 µM) | relative viability ([1]; first compound 31.62 µM) |
| --- | --- | --- | --- | --- | --- | --- | --- | --- | --- | --- | --- | --- | --- | --- | --- | --- | --- | --- | --- | --- |
| LU99A | 0.183 | 0.243 | 0.19 | 0.172 | 0.453 | 0.584 | 0.591 | 0.542 | 0.569 | 0.355 | 0.349 | 0.336 | 0.363 | 0.306 | 0.901 | 0.851 | 0.818 | 0.894 | 0.936 | – |
| LXF-289 | 0.908 | 0.985 | 0.921 | 0.943 | 1.09 | 1.05 | 1.02 | 1.06 | 1.05 | 0.823 | 0.732 | 0.833 | 0.765 | 0.742 | 1.07 | 0.902 | 0.913 | 0.983 | 1.05 | 0.767 |
| NCI-H23 | 0.679 | 0.609 | 0.734 | 0.547 | 0.725 | 0.745 | 0.814 | 0.758 | 0.806 | 0.535 | 0.574 | 0.505 | 0.477 | 0.508 | 1.06 | 0.948 | 1.06 | 0.955 | 1.02 | 0.479 |
| NCI-H322M | 0.635 | 0.599 | 0.605 | 0.511 | 0.897 | 0.864 | 0.855 | 0.85 | 0.937 | 0.571 | 0.496 | 0.474 | 0.472 | 0.505 | 1.18 | 0.926 | 0.922 | 0.859 | 1.12 | 0.578 |
| NCI-H358 | 0.17 | 0.192 | 0.158 | 0.145 | 0.97 | 0.826 | 1.04 | 0.826 | 0.971 | 0.369 | 0.309 | 0.33 | 0.336 | 0.369 | 0.701 | 0.738 | 0.859 | 0.695 | 0.925 | 0.149 |
| NCI-H441 | 0.297 | 0.248 | 0.235 | 0.244 | 0.86 | 0.74 | 0.756 | 0.467 | 0.976 | 0.456 | 0.563 | 0.413 | 0.571 | 0.542 | 0.989 | 0.93 | 0.872 | 1.13 | 0.95 | – |
| NCI-H460 | 0.0605 | 0.0587 | 0.0622 | 0.0898 | 0.595 | 0.556 | 0.487 | 0.602 | 0.584 | 0.403 | 0.443 | 0.333 | 0.323 | 0.327 | 1.01 | 0.917 | 0.974 | 0.995 | 1.05 | 0.0636 |
| NCI-H520 | 0.721 | 0.741 | 0.727 | 0.699 | 0.917 | 1.11 | 1.2 | 1.01 | 0.919 | 0.326 | 0.247 | 0.288 | 0.272 | 0.327 | 0.808 | 0.64 | 0.706 | – | 0.829 | 0.461 |
| NCI-H596 | 0.523 | 0.468 | 0.513 | 0.483 | 0.574 | 0.612 | 0.524 | 0.537 | 0.392 | 0.352 | 0.359 | 0.417 | 0.379 | 0.364 | 0.504 | 0.861 | 0.803 | 0.873 | 0.818 | 0.498 |
| NCI-H647 | 0.166 | 0.164 | 0.197 | 0.162 | 1.1 | 1.22 | 1.25 | 1.13 | 1.08 | 0.439 | 0.416 | 0.425 | 0.478 | 0.399 | 1.26 | 1.16 | 1.03 | 1.23 | 1.56 | 0.156 |
| NCI-H661 | 0.937 | 0.922 | 0.962 | 0.888 | 0.374 | 0.821 | 0.624 | 0.358 | 0.599 | 0.387 | 0.422 | 0.339 | 0.46 | 0.375 | 1.06 | 1.01 | 1.09 | 1.04 | 1.12 | 0.834 |
| NCI-H838 | 0.194 | 0.242 | 0.272 | 0.287 | 0.961 | 1.19 | 1.08 | 1.01 | 1.04 | 0.461 | 0.37 | 0.551 | 0.594 | 0.607 | 1.06 | 1.11 | 1.12 | 0.906 | 1.13 | 0.235 |
| NCI-H1355 | 0.977 | 0.972 | 0.764 | 0.677 | 0.905 | 0.915 | 0.778 | 0.902 | 0.965 | 0.41 | 0.514 | 0.606 | 0.432 | 0.308 | 1.03 | 0.945 | 1.04 | 0.956 | 1.1 | 0.686 |
| NCI-H1395 | – | 0.897 | 0.907 | 0.908 | 1 | 1.26 | 1.12 | 1.03 | 1.29 | 0.612 | 0.559 | 0.634 | 0.528 | 0.684 | 0.97 | 1.03 | 0.982 | 0.939 | 0.918 | – |
| NCI-H1437 | 0.337 | 0.313 | 0.309 | 0.253 | 0.961 | 1.03 | 1.16 | 1.01 | 1.01 | 0.437 | 0.399 | 0.459 | 0.418 | 0.402 | 1.3 | 1.22 | 1.28 | 1.13 | 1.25 | 0.258 |
| NCI-H1563 | 0.54 | 0.813 | 0.817 | 0.749 | 0.93 | 1.07 | 0.943 | 0.926 | 0.839 | 0.645 | 0.599 | 0.647 | 0.681 | 0.659 | 0.934 | 0.918 | 0.884 | 0.847 | 0.938 | 0.769 |
